Counter-ions that a name gives are not always drawn. One block for each compound: values may come before it.
How the values were obtained:
Format in all cases: physicochemical
[1] = Accelerated test (40±2° C., relative humidity 75±5%, 6 months, sealed polyethylene film bag); settings: for Appearance color / Purity (%) / Relevant substances: 40±2° C., RH 75±5%; for Purity (%) / Relevant substances: hydrochloride; for Stability (conclusion in words): accelerated test, no obvious changes in appearance color, purity, relevant substances
Experimental: Revaprazan hydrochloride crystalline form I is sealed in a polyethylene film bag, is placed for 6 months under the conditions that the temperature is 40±2° C. and the relative humidity is 75±5%, and is respectively sampled at the end of the 1st Month, the 2nd Month, the 3rd Month and the 6^thMonth for detection; and the results are shown in Table 4. Revaprazan hydrochloride crystalline form II is sealed in a polyethylene film bag and is placed for 6 months under the conditions that the temperature is 40±2° C. and the relative humidity is 75±5%, and is respectively sampled at the end of the 1st Month, the 2nd Month, the 3rd Month and the 6th Month for detection; and the results are shown in Table 8. Revaprazan hydrochloride crystalline form III is sealed in a polyethylene film bag, is placed for 6 months under the conditions that the temperature is 40±2° C. and the relative humidity is 75±5%, and is sampled at the end of the 1st Month, the 2nd Month, the 3rd Month and the 6th Month for detection. Revaprazan hydrochloride crystalline form IV is sealed in a polyethylene film bag, is placed for 6 months under the conditions that the temperature is 40±2° C. and the relative humidity is 75±5%, and is sampled at the end of the 1st Month, the 2nd Month, the 3rd Month and the 6th Month for detection. Revaprazan hydrochloride crystalline form V is sealed in a polyethylene film bag and is placed for 6 months under the condition that the temperature is 40±2° C. and the relative humidity is 75±5%, and is sampled at the end of the 1st month, the 2nd month, the 3rd month and the 6th month for detection, and the results are shown in Table 20.

[2] = Light illumination test (intense light, 4500±500 Lx); settings: for Stability (conclusion in words): intense light illumination, no obvious changes in appearance color, loss on drying, purity, relevant substances; for Appearance color / Loss on drying (%) / Purity (%) / Relevant substances: light 4500±500 Lx; for Loss on drying (%) / Purity (%) / Relevant substances: hydrochloride
Source text: Revaprazan hydrochloride crystalline form I is irradiated under such a condition that the light intensity is 4500±500 Lx, and is sampled on the 5th day and 10th day for detection, and the results are shown in Table 1. Revaprazan hydrochloride crystalline form II is irradiated under the condition that the light intensity is 4500±500Lx, and is sampled on the 5th day and 10th day for detection. Revaprazan hydrochloride polymorph III is irradiated under such a condition that the light intensity is 4500±500Lx, and is sampled on the 5th day and 10th day for detection. Revaprazan hydrochloride […] is irradiated under such a condition that the light intensity is 4500±500Lx, and is sampled on the 5th day and the 10th day for detection. Revaprazan hydrochloride crystalline form V is irradiated under the light intensity condition of 4500±500Lx; and is sampled on the 5th day and 10th day for detection.

[3] = High temperature test (60° C. incubator); settings: for Appearance color / Loss on drying (%) / Purity (%) / Relevant substances: 60° C., hydrochloride; for Stability (conclusion in words): high temperature, no obvious changes in appearance color, loss on drying, purity, relevant substances
Experimental: Revaprazan hydrochloride crystalline form I is placed in a 60° C. incubator, and is sampled on the 5th day and 10th day for detection, and the results are shown in Table 2. Revaprazan hydrochloride crystalline form II is placed in a 60° C. incubator, and is sampled on the 5th day and 10th day for detection, and the results are shown in Table 6. Revaprazan hydrochloride polymorph III is placed in an incubator of 60° C., and is sampled on the 5th day and the 10th day for detection. Revaprazan hydrochloride crystalline form IV is placed in an incubator of 60° C., and is sampled on the 5th day and the 10th day for detection. Revaprazan hydrochloride crystal form 4 is placed in an incubator of 60° C.; and is sampled on the 5th day and the 10th day for detection, and the results are shown in Table 23.

[4] = High humidity test (25° C., relative humidity 75±5%); settings: for Appearance color / Purity (%) / Relevant substances / Weight gain upon moisture absorption (%): 25° C., RH 75±5%; for Weight gain upon moisture absorption (in words): high humidity condition; for Stability (conclusion in words): high humidity, no obvious changes in appearance color, purity, relevant substances
Experimental: Revaprazan hydrochloride crystalline form I is placed in an incubator of 25° C. (relative humidity of 75±5%), and is sampled on the 5th day and 10th day for detection. Revaprazan hydrochloride crystalline form II is placed in an incubator of 25° C. (relative humidity of 75±5%), and is sampled on the 5th day and 10th day for detection. Revaprazan hydrochloride polymorph III is placed in an incubator of 25° C. (relative humidity of 75±5%), and is sampled on the 5th day and the 10th day for detection. Revaprazan hydrochloride crystalline form IV is placed in an incubator of 25° C. Revaprazan hydrochloride crystal form 4 is placed in an incubator of 25° C. (the relative humidity is 75±5%), and is sampled on the 5th day and the 10th day for detection.

[5] = 5th day, listed as revaprazan hydrochloride polymorph III
[6] = 10th day, listed as revaprazan hydrochloride polymorph III
[7] = Day 0, listed as revaprazan hydrochloride polymorph III

- Appearance color ([1]; 1st month): White powder
- Purity (%) ([1]; 1st month): 99.93%
- Appearance color ([1]; 2nd month): White powder
- Purity (%) ([1]; 2nd month): 99.95%
- Appearance color ([1]; 3rd month): White powder
- Purity (%) ([1]; 3rd month): 99.96%
- Appearance color ([1]; 6th month): White powder
- Purity (%) ([1]; 6th month): 99.95%
- Appearance color ([1]; Month 0): White powder
- Purity (%) ([1]; Month 0): 99.94%
- Stability (conclusion in words) [1]: stable
- Stability (conclusion in words) [2]: stable
- Appearance color ([2]; 5th day): White powder
- Loss on drying (%) ([2]; 5th day): 0.26%
- Purity (%) ([2]; 5th day): 99.97%
- Relevant substances ([2]; 5th day): Not detected
- Appearance color ([2]; 10th day): White powder
- Loss on drying (%) ([2]; 10th day): 0.28%
- Purity (%) ([2]; 10th day): 99.94%
- Relevant substances ([2]; 10th day): Not detected
- Appearance color ([2]; Day 0): White powder
- Loss on drying (%) ([2]; Day 0): 0.25%
- Purity (%) ([2]; Day 0): 99.94%
- Relevant substances ([2]; Day 0): Not detected
- Appearance color ([3]; 5th day): White
- Loss on drying (%) ([3]; 5th day): 0.27%
- Purity (%) ([3]; 5th day): 99.97%
- Relevant substances ([3]; 5th day): Not detected
- Appearance color ([3]; 10th day): White
- Loss on drying (%) ([3]; 10th day): 0.29%
- Purity (%) ([3]; 10th day): 99.95%
- Relevant substances ([3]; 10th day): Not detected
- Appearance color ([3]; Day 0): White
- Loss on drying (%) ([3]; Day 0): 0.23%
- Purity (%) ([3]; Day 0): 99.94%
- Relevant substances ([3]; Day 0): Not detected
- Stability (conclusion in words) [3]: stable
- Appearance color ([4]; 5th day): White powder
- Purity (%) ([4]; 5th day, hydrochloride): 99.93%
- Relevant substances ([4]; 5th day, hydrochloride): Not detected
- Weight gain upon moisture absorption (%) ([4]; 5th day, hydrochloride): 0.42%
- Appearance color ([4]; 10th day): White powder
- Purity (%) ([4]; 10th day, hydrochloride): 99.95%
- Relevant substances ([4]; 10th day, hydrochloride): Not detected
- Weight gain upon moisture absorption (%) ([4]; 10th day, hydrochloride): 0.64%
- Appearance color ([4]; Day 0): White powder
- Weight gain upon moisture absorption (%) ([4]; Day 0): 0%
- Purity (%) ([4]; Day 0, hydrochloride): 99.94%
- Relevant substances ([4]; Day 0, hydrochloride): Not detected
- Weight gain upon moisture absorption (in words) [4]: slight weight gain
- Stability (conclusion in words) [4]: stable
SMILES: Cc1nc(Nc2ccc(F)cc2)nc(N2CCc3ccccc3C2C)c1C (single isomer, unassigned) [revaprazan hydrochloride crystalline form II]

- Appearance color ([1]; 1st month): White powder
- Purity (%) ([1]; 1st month): 99.92%
- Relevant substances ([1]; 1st month): Undetected
- Appearance color ([1]; 2nd month): White powder
- Purity (%) ([1]; 2nd month): 99.91%
- Relevant substances ([1]; 2nd month): Undetected
- Appearance color ([1]; 3rd month): White powder
- Purity (%) ([1]; 3rd month): 99.93%
- Relevant substances ([1]; 3rd month): Undetected
- Appearance color ([1]; 6th month): White powder
- Purity (%) ([1]; 6th month): 99.95%
- Relevant substances ([1]; 6th month): Undetected
- Appearance color ([1]; Month 0): White powder
- Purity (%) ([1]; Month 0): 99.95%
- Relevant substances ([1]; Month 0): Undetected
- Stability (conclusion in words) [1]: stable
- Stability (conclusion in words) [2]: stable
- Appearance color ([2]; 5th day): White powder
- Loss on drying (%) [2, 5]: 0.25%
- Purity (%) [2, 5]: 99.92%
- Relevant substances [2, 5]: Undetected
- Appearance color ([2]; 10th day): White powder
- Loss on drying (%) [2, 6]: 0.29%
- Purity (%) [2, 6]: 99.95%
- Relevant substances [2, 6]: Undetected
- Appearance color ([2]; Day 0): White powder
- Loss on drying (%) [2, 7]: 0.28%
- Purity (%) [2, 7]: 99.95%
- Relevant substances [2, 7]: Undetected
- Appearance color [3, 5]: White powder
- Loss on drying (%) [3, 5]: 0.26%
- Purity (%) [3, 5]: 99.94%
- Relevant substances [3, 5]: Undetected
- Appearance color [3, 6]: White powder
- Loss on drying (%) [3, 6]: 0.26%
- Purity (%) [3, 6]: 99.92%
- Relevant substances [3, 6]: Undetected
- Appearance color [3, 7]: White powder
- Loss on drying (%) [3, 7]: 0.22%
- Purity (%) [3, 7]: 99.95%
- Relevant substances [3, 7]: Undetected
- Stability (conclusion in words) [3]: stable
- Appearance color ([4]; 5th day): White powder
- Purity (%) ([4]; 5th day, hydrochloride): 99.92%
- Relevant substances ([4]; 5th day, hydrochloride): Undetected
- Weight gain upon moisture absorption (%) ([4]; 5th day, hydrochloride): 0.47%
- Appearance color ([4]; 10th day): White powder
- Purity (%) ([4]; 10th day, hydrochloride): 99.94%
- Relevant substances ([4]; 10th day, hydrochloride): Undetected
- Weight gain upon moisture absorption (%) ([4]; 10th day, hydrochloride): 0.59%
- Appearance color ([4]; Day 0): White powder
- Weight gain upon moisture absorption (%) ([4]; Day 0): 0%
- Purity (%) ([4]; Day 0, hydrochloride): 99.95%
- Relevant substances ([4]; Day 0, hydrochloride): Undetected
- Weight gain upon moisture absorption (in words) [4]: slight weight gain
- Stability (conclusion in words) [4]: stable
SMILES: Cc1nc(Nc2ccc(F)cc2)nc(N2CCc3ccccc3C2C)c1C (single isomer, unassigned) [revaprazan hydrochloride crystalline form III]

Source: patent US20170334877A1, “REVAPRAZAN HYDROCHLORIDE POLYMORPHS AND PREPARATION METHOD THEREFOR” (JIANGSU TASLY DIYI PHARMACEUTICAL CO., LTD., priority 2014, published 2017)
